Measurements reported in PubChem BioAssay AID2305 (GlaxoSmithKline (GSK), 2010).
Values joined by “and” are separate entries in the source; they are usually repeats but may differ in a detail not shown here. Equal entries are not always repeated.

The compounds below were run on P. falciparum 3D7 growth, pLDH absorbance (assay: P. falciparum 3D7 growth inhibition, dose response, strain 3D7 (AID 2305)).

Structure (SMILES)	IC50
CCCCN(CCCC)Cc1cc(Nc2ccnc3cc(Cl)ccc23)ccc1O	0.02 µM
CCOC(=O)c1cnc2c(C(F)(F)F)cccc2c1Nc1ccc(O)cc1	0.63 µM
Cc1ccc2c(Cc3cnc(N)nc3N)cc(C)c(N)c2n1	1.42 µM
COc1cc(C(=O)N2COCC(CCCN3CCC(N4CCCC4)CC3)(c3ccc(Cl)c(Cl)c3)C2)cc(OC)c1OC (stereo not drawn)	0.78 µM
CCOc1ccc2ccccc2c1CNCCCCCCNCc1c(OCC)ccc2ccccc12	0.58 µM
COc1cc(N)c(Cl)cc1C(=O)NCC1CCN(c2nc(C)cc(C)n2)CC1	0.51 µM
CC(C)NCc1ccc(-c2ccc(-c3nc4ccc(C(F)(F)F)cc4[nH]3)cc2)cc1	0.27 µM
CCCCCc1cc(OCCN(C)C)cc2c1C(=O)CC(C)(C)O2	0.1 µM
CNC(=O)c1ccc2[nH]cc(C3CCN(CC4CCC(NC(=O)/C=C/c5ccccc5Cl)CC4)CC3)c2c1 (stereo not drawn)	0.84 µM
O=c1cc(NCCCNCc2ccc(Cl)c(Cl)c2)[nH]c2cc(F)cc(F)c12	0.68 µM
COc1c(Br)cc(Br)cc1-c1ccc(CN2C3CCCC2CCC3)[nH]1	1.11 µM
Cc1cccnc1Nc1nc(-c2ccccn2)cs1	0.69 µM
O=C(Nc1ccc(CN2CCCCC2)cc1)c1ccc(COc2ccc([N+](=O)[O-])cc2)o1	1 µM
CCN(CC)CCN(Cc1ccc(-c2ccc(C(F)(F)F)cc2)nc1)C(=O)Cn1cc(Cc2cnn(C)c2)c(=O)n2nc(-c3ccccc3)cc12	0.99 µM
N#Cc1ccc(-c2ccc(C(=O)NCCCCN3CCC(c4ccc5c(c4OCc4ccncc4)CCCC5)CC3)cc2)cc1	0.76 µM
FC(F)(F)c1cccc(N2CCC(CN3CCC(c4c[nH]c5ccccc45)CC3)CC2)n1	0.98 µM
COCCNCc1cccc(C#Cc2cc3ncnc(Nc4ccc(OCc5cccc(F)c5)c(Cl)c4)c3s2)n1	0.74 µM
CCCCc1ccc(C(=O)Nc2ccc3nc(N4CCN(CC)CC4)cc(C)c3c2)cc1	0.91 µM
O=C(N[C@@H](Cc1ccccc1)C(=O)NCCN1CCCC1)c1ccc(O)c(-c2ccc(Cl)c(Cl)c2)c1	0.8 µM
COCCSc1ccc(CC(C)NCC(O)c2cccc(Cl)c2)cc1 (stereo not drawn)	0.76 µM
O=C(CNC(=O)c1ccc(O)cc1)Nc1ccc(-c2cccc(-c3nc4ccc(C(F)(F)F)cc4[nH]3)c2)cc1	0.86 µM
CC(CN(C)C)C(=O)Nc1ccc(-c2cccc(-c3nc4ccc(C(F)(F)F)cc4[nH]3)c2)cc1 (stereo not drawn)	0.21 µM
COc1ccc2nc3cc(Cl)ccc3c(Nc3ccc(C(=O)O)cc3)c2c1	0.3 µM
CC(N)(Cc1ccc(O)cc1)c1nn[nH]n1 (stereo not drawn)	0.97 µM
CN1CCCN(Cc2ccc(-c3cccc(NC(=O)c4cccc(Cl)c4)c3)cc2)CC1	0.84 µM

Structure (SMILES)	IC50
COC(=O)c1cc2cccc(NC[C@@H](C)NC[C@H](O)c3cccc(Cl)c3)c2[nH]1	0.63 µM
CN1CCN(c2ccc3nc(-c4ccc(Cc5cc(Cl)ccc5OCc5ccccc5)o4)[nH]c3c2)CC1	0.81 µM
OCc1c(Cl)cc(Cl)cc1CNCCCNc1nc2ccccc2[nH]1	0.74 µM
Oc1[nH]c2ccccc2c1N=NC(=S)N1CCOCC1	0.91 µM
CC(C)Cc1ccc(N2CCN(CCCCNC(=O)c3ccc(NC(=O)c4cc(C(F)(F)F)cc(C(F)(F)F)c4)cc3)CC2)cc1	0.18 µM
C=CCOC(=O)O[C@@H]1[C@@H](OC(=O)OCC=C)[C@@H](OC)O[C@H](COC(c2ccccc2)(c2ccccc2)c2ccccc2)[C@H]1OC(=O)OCC=C	0.89 µM
Cc1cccc(Cn2ccc3c4c(N)nc(N)nc4ccc32)c1	0.01 µM
CC(=O)Nc1cccc(-c2cn(-c3ccc(OCc4cccc(F)c4)c(Cl)c3)c3ncncc23)c1	0.07 µM
COc1cccc(CCNCc2ccc(-c3cccc(CNC4CCCC4)c3)cc2)c1	0.73 µM
CNc1nc(Nc2ccccc2C)nc2ccccc12	0.44 µM
Cc1ccc2nc(-c3ccc(C=CC(=O)NC4CCN(Cc5ccccc5)CC4)cc3)[nH]c2c1	0.68 µM
COc1cc(Cc2cnc(N)nc2N)ccc1OCc1cccc(Oc2ccccc2)c1	1.33 µM
COc1cc(CNC(=S)NN=C(C)c2ccccn2)cc(OC)c1OC	0.4 µM
O=C(/C=C/c1ccccc1O)NC1CCC(CN2CCC(c3c[nH]c4ccccc34)CC2)CC1 (stereo not drawn)	0.76 µM and 0.46 µM
COc1cccc2cc(C(=O)N[C@@H](CC(C)C)C(=O)N[C@H](/C=N/N3CCOC3=O)CC(C)C)oc12	0.74 µM
CC1CCC(NCc2c(O)ccc3ccccc23)CC1 (stereo not drawn)	0.77 µM
O=C(/C=C/c1ccc(Cl)c(Cl)c1)N1CCC(CCN2CCC(c3c[nH]c4cnccc34)CC2)CC1	0.12 µM
Cn1nc(-c2cccc(CNCCc3cccs3)c2)c2cnc(NC3CCCC3)nc21	1.89 µM
CCC(N)(C#Cc1ccc(-c2c(C)[nH]c(C)c(Br)c2=O)cc1)CC	0.04 µM
FC(F)(F)CNc1nc(Nc2ccc3ncccc3c2)nc2[nH]ccc12	1.24 µM
O=C(/C=C/c1ccc(Cl)c(Cl)c1)N1CCC(C(O)CN2CCC(c3c[nH]c4ccccc34)CC2)CC1 (stereo not drawn)	0.86 µM
CN1CCN(Cc2ccc(-c3ccc4c(Nc5cc(O)c(Cl)cc5F)ccnc4c3)o2)CC1	0.11 µM
CC[C@H]1CN2CC[C@@H]1C[C@H]2[C@H](O)c1ccnc2ccc(OC)cc12	0.23 µM
Clc1ccc(-c2cc3c(NCc4ccncc4)nccc3s2)cc1	0.85 µM
Oc1ccccc1CCNC1CCc2ccccc2C1 (stereo not drawn)	0.93 µM

Structure (SMILES)	IC50
O=C(Nc1ccc(Cl)cc1)N1CCN(C2CCCCC2)CC1	0.99 µM
COCCNCc1nc(-c2ccc3c(Nc4ccc(F)c(O)c4)ccnc3c2)cs1	0.69 µM
CC(C)OC(=O)c1ccc(NC(=O)N[C@@H](Cc2ccc(O)cc2)C(=O)NC2C[C@H]3CC[C@@H](C2)N3Cc2ccccc2)cc1 (stereo partly drawn)	1.08 µM
COc1ccc(CNCc2ccc(-c3ccc(-c4nc5ccc(F)cc5[nH]4)cc3)cc2)cc1	0.25 µM
CC(C)(C)c1cc(NC2CC2)nc(-c2ccccn2)n1	0.72 µM
CCCCCCc1cc(O)c2c3c(c(=O)oc2c1)CCN(C)C3	0.67 µM
CN(Cc1cccc(O)c1)C1CCN(c2cc(NC(=O)c3cccc(F)c3)ccn2)CC1	0.85 µM
O=C(C=Cc1ccc(Cl)c(Cl)c1)NCCCCCN1CCC(CCNC(=O)c2ccc3c(c2)OCO3)CC1	0.69 µM
Cn1cnc2c(Nc3ccncc3)nc(-c3ccc4c(c3)OCO4)nc21	1.11 µM
CN=C(N)c1ccc(NC(=O)c2ccc(C(=O)Nc3ccc(C(N)=NC)cc3)cc2)cc1	0.05 µM
Cc1ccc(Cn2ncc(N3CCC(N)CC3)c(Cl)c2=O)cc1NC(=O)Nc1ccc(-c2ccccc2)cc1	0.92 µM
CC(C)C[C@H](Nc1ccnc(NCC2CCCCC2)n1)C(=O)Nc1ccccc1	1.43 µM
Cc1[nH]c(C)c(-c2ccc(CCc3ccc(F)cc3F)cc2)c(=O)c1Cl	0.02 µM
CC(C)Sc1nc2c(c(=O)n1Cc1ccco1)C1(CCCC1)Cc1ccccc1-2	1.63 µM
O=C(NCC1CCN(Cc2cccc(C(F)(F)F)c2)C1)c1cc(-c2cccc(Cl)c2)cs1 (stereo not drawn)	0.8 µM
COc1ccc2nc(C)cc(Nc3ccc(Oc4ccc5ccccc5c4Cl)c(Cl)c3)c2c1	0.5 µM
O=C(Nc1ccc2c(c1)CCC2)c1cccc(N2CCN(c3ccncc3)CC2)c1	0.97 µM
CN(C)CCN(C)Cc1ccc(-c2ccc3c(Nc4ccc(F)cc4Cl)ccnc3c2)o1	0.12 µM
C#CCOc1ccc(N2C(N)=NC(N)=NC2(C)C)cc1	0.07 µM
O=C(NCCCCN1CCC(c2ccc([N+](=O)[O-])cc2)CC1)c1ccc(NC(=O)c2ccc(Cl)cc2)cc1	0.76 µM
O=C(/C=C/c1ccc(Cl)c(Cl)c1)N1CCC(CN2CCC(c3c[nH]c4cc5c(cc34)OCO5)CC2)CC1	0.68 µM
CN1CCC(Oc2ccc(CN3CC[C@H](NC(=O)c4ccc(Cl)c(Cl)c4)C3)cc2Cl)C1 (stereo partly drawn)	0.88 µM
CC1CCC2(CC1)N=C(N)N=C(N)N2OCc1cc2ccccc2c2ccccc12 (stereo not drawn)	0.24 µM
Cc1ccc(Nc2nccc(Nc3ccc4c(C)[nH]nc4c3)n2)cc1F	0.78 µM
Cc1nnsc1C(=O)Nc1cccc(-c2ccc(-c3nc4ccc(C(F)(F)F)cc4[nH]3)cc2)c1	0.31 µM

Structure (SMILES)	IC50
O=C(Nc1ccc(-c2cccc(-c3nc4ccc(F)cc4[nH]3)c2)cc1)Nc1ccc(Cl)c(Cl)c1	0.65 µM
COc1ccc2nccc([C@@H](O)CN3CCC(NCc4cc5c(Cl)cccc5[nH]4)CC3)c2c1	0.16 µM
CC(=O)Nc1nc(C(=O)Nc2ccc(-c3cccc(-c4nc5ccccc5[nH]4)c3)cc2)cs1	0.55 µM
CCN1CCN(Cc2ccc(NC(=O)c3cc4ccc5cccnc5c4[nH]3)cc2)CC1	0.85 µM
CC1(C)N=C(N)N=C(N)N1c1ccc([N+](=O)[O-])cc1	0.23 µM
COc1ccc(C(=O)N2CCC3(CC2)C(=O)N(CC(=O)NCC2CCCCC2)CN3c2ccccc2)cc1	0.27 µM
COc1cc(CCCOc2c(N)nc(N)nc2N)cc(OC)c1OC	1.22 µM
CC(C)(CN1CCCC1)CN(Cc1ccc(-c2ccc(C(F)(F)F)cc2)cc1)C(=O)Cn1c(CCc2cccc(F)c2F)nc(=O)c2ccccc21	0.79 µM
Oc1ccc(CCNc2nc(NCCCOc3ccccc3-c3ccncc3)nc(N3CCNCC3)n2)cc1	1.11 µM
CC(=O)Nc1cccc(CN(Cc2ccc(-c3ccc(CNCc4cccnc4)cn3)cc2)C(=O)Cc2cccnc2)c1	0.82 µM
CCn1c(C2CCN(CCC3CCN(C(=O)/C=C/c4ccc(Cl)c(Cl)c4)CC3)CC2)nc2ccccc21	1.08 µM
CC(=O)Nc1nc(C)c(-c2csc(Nc3ccc(Cl)cc3)n2)s1	0.26 µM
O=C(/C=C/c1ccc(Cl)c(Cl)c1)NCCCCCN1CCC(NC(=O)Nc2cccc(Cl)c2)CC1	0.75 µM
CC1N=C(N)N=C(N)N1OCc1ccccc1 (stereo not drawn)	0.03 µM
CCCNCc1ccc(-c2ccc(CN(CCOC)C(=O)/C=C/c3ccccc3C)cc2)nc1	0.9 µM
O=C(/C=C/c1ccc(Cl)c(Cl)c1)NCCCCCN1CCC(NC(=O)Nc2cccc(Cl)c2F)CC1	0.38 µM
Cc1cccc2c(/C=C/C(=O)NC3CCC(CCN4CCc5ccc(C#N)cc5CC4)CC3)c[nH]c12 (stereo not drawn)	1.22 µM
CCN(CC)CCCNc1nccc(N(C)c2ccc(NC(=O)Nc3cc(C(F)(F)F)ccc3F)cc2)n1	1.05 µM
CC[C@H](NC(=O)c1c(CN2CCC(N3CCCCC3)CC2)c(-c2ccccc2)nc2cc(O)ccc12)c1ccccc1	1.37 µM
O=c1cc(NCCC(CNCc2ccc(Br)o2)NCc2cc(Br)cc(Br)c2)[nH]c2ccccc12 (stereo not drawn)	0.86 µM
Cc1[nH]c2ccc(O)cc2c1C1CCN(CC2CCC(NC(=O)/C=C/c3ccc(Cl)c(Cl)c3)CC2)CC1 (stereo not drawn)	0.76 µM
CCCCN(CCCC)CCCN(CCCN(CCCC)CCCC)c1cc(C)nc(Nc2ccc3cc(Br)ccc3c2)n1	0.32 µM
Cc1ccc2[nH]c3c(c2c1)CC(C(=O)NCCC(C)C)NC31CCN(Cc2ccccc2)CC1 (stereo not drawn)	0.93 µM
